Test results published in patent US11549123B2, “Plant EPSP synthases and methods of use” (PIONEER HI-BRED INTERNATIONAL, INC., priority 2015, dated 2023).
Positions count from the first letter of the chain named.

Experiments:
Assay type in all cases: biochemical
[1] = target: T1, Zea mays EPSPS variant Zm-T103I (Zea mays, UniProt O24566, T102I); experiment: Substrate saturation kinetic analysis with glyphosate, Zm-T103I
T1 construct: native maize plus T103I; E. coli BL21(DE3), Ni-NTA purified
T1 sequence (O24566 with tags, fused parts or gaps T102I): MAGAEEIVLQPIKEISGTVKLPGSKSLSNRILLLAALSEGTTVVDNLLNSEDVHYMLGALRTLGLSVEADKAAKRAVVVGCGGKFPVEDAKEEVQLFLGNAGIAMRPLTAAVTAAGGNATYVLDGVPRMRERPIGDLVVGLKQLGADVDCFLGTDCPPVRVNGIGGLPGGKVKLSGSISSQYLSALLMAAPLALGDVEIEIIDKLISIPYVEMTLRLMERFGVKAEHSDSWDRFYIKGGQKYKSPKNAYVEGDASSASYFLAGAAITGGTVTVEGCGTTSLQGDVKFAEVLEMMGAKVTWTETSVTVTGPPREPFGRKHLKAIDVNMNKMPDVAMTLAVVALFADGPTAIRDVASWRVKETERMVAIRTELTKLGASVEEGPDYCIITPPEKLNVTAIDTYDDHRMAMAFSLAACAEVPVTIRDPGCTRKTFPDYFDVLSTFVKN

[2] = target: T2, Zea mays EPSPS variant Zm-H6 (868-H6) with A36G (H6-A36G) (Zea mays, UniProt O24566, A1R/A35G/A3W/A415G/A71Q/D401G/E301S/E390G/G101A/I207L/K83R/L97C/T278A/T360S/T440Q/V437R); experiment: Rapid two-rate method for (kcat/KM)*KI, H6-A36G; settings: [E] 0.07 uM, [Gly] 1000 uM
T2 sequence (O24566 with tags, fused parts or gaps A1R/A3W/A35G/A71Q/K83R/L97C/G101A/I207L/T278A/E301S/T360S/E390G/D401G/A415G/V437R/T440Q): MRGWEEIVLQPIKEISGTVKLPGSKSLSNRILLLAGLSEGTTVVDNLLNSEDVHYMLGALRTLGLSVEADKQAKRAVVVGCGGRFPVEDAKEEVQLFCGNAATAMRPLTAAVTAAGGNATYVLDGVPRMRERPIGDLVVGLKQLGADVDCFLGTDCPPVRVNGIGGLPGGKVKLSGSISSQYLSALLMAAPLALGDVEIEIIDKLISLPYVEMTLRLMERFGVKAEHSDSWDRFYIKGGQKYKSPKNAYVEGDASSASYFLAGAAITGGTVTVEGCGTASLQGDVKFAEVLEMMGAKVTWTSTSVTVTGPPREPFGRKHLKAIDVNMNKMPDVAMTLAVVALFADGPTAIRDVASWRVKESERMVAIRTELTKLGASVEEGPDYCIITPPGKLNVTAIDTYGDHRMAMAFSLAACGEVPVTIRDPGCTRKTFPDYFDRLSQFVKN
Description: (§1) There are several practical considerations for accurately estimating (kcat/KM)*KI with the rapid method. […] 2) The inhibitor concentration must be adjusted so as to obtain a degree of inhibition that minimally amplifies the error in the term v0-vi in Equation 3. If inhibition is too little, v0-vi will be small, and the error in the multiplier vi×v0/(v0-vi) will be large. […] 3) Substrate concentration should be set at the approximate KM of the parental variant(s), subject to the sensitivity of the assay. High substrate concentration obscures sensitivity to the inhibitor and reduces stringency for capturing improvements in KM. Depending on the necessity for speed, there exists opportunity for customizing enzyme and inhibitor concentrations. […] The rapid method was repeated for those and obtained data that correlated better with data obtained by substrate saturation analysis. For screening purposes however, that correlation step is not necessary. Conditions can be set so that variants with a pre-determined minimal fitness level are accurately quantified.
(§2) In Table 15, parameters above the heavy line for the rapid method were obtained under standard conditions. For variants shown below the heavy line, the rapid analysis was repeated with enzyme or glyphosate concentrations adjusted as needed to generate sufficient signal within the limits for linear initial rates.

[3] = target: T3, Zea mays EPSPS variant Zm-H6 (868-H6) with K246G (H6-K246G) (Zea mays, UniProt O24566, A1R/A3W/A415G/A71Q/D401G/E301S/E390G/G101A/I207L/K245G/K83R/L97C/T278A/T360S/T440Q/V437R); experiment: Rapid two-rate method for (kcat/KM)*KI, H6-K246G; settings: [E] 0.07 uM, [Gly] 1000 uM
T3 construct: 868-H6 plus K246G; E. coli BL21(DE3), Ni-NTA purified
T3 sequence (O24566 with tags, fused parts or gaps A1R/A3W/A71Q/K83R/L97C/G101A/I207L/K245G/T278A/E301S/T360S/E390G/D401G/A415G/V437R/T440Q): T2 sequence (O24566 with tags, fused parts or gaps A1R/A3W/A35G/A71Q/K83R/L97C/G101A/I207L/T278A/E301S/T360S/E390G/D401G/A415G/V437R/T440Q) with G36A, K246G
Description: as §1, §2

[4] = target: T4, Zea mays EPSPS variant Zm-H6 (868-H6) with R61Y (H6-R61Y) (Zea mays, UniProt O24566, A1R/A3W/A415G/A71Q/D401G/E301S/E390G/G101A/I207L/K83R/L97C/R60Y/T278A/T360S/T440Q/V437R); experiment: Substrate saturation kinetic analysis with glyphosate, H6-R61Y
T4 construct: 868-H6 plus R61Y; E. coli BL21(DE3), Ni-NTA purified
T4 sequence (O24566 with tags, fused parts or gaps A1R/A3W/R60Y/A71Q/K83R/L97C/G101A/I207L/T278A/E301S/T360S/E390G/D401G/A415G/V437R/T440Q): T2 sequence (O24566 with tags, fused parts or gaps A1R/A3W/A35G/A71Q/K83R/L97C/G101A/I207L/T278A/E301S/T360S/E390G/D401G/A415G/V437R/T440Q) with G36A, R61Y

In the case of `O=C(O)CNCP(=O)(O)O` [glyphosate, N-phosphonomethylglycine], the Ki [1] is reported as 53 µM, the “(kcat/KM)*KI” value ([1]; substrate saturation, Zm-T103I) is reported as 99 and the “(kcat/KM)*KI” value [2] is reported as 4500. For the same molecule, the “(kcat/KM)*KI” value [3] was 3495, the Ki [4] was 309 µM and the “(kcat/KM)*KI” value ([4]; substrate saturation, H6-R61Y) was 1640.
